Assay results as given in patent US20170196859A1, “PHARMACEUTICAL COMPOSITION COMPRISING PYRAZINE CARBOXAMIDE COMPOUND AS ACTIVE INGREDIENT” (Astellas Pharma Inc., priority 2014, published 2017).

Columns and labels:
BTK kinase = BTK kinase (Homo sapiens, UniProt Q06187); test: BTK kinase inhibitory activity (QSS Assist BTK_MSA kit); type: biochemical; settings: 30 min preincubation, ATP 1 mM, concentration as compound A free form
Description: The BTK kinase inhibitory activity was evaluated using QSS Assist BTK_MSA kit (Carna Bioscience).
The test compound B was dissolved in dimethyl sulfoxide (DMSO) to prepare a solution at a 100-fold concentration as compared to the final concentration. The solution was also 25-fold diluted with an appurtenant assay buffer to obtain a test compound B solution. In addition, BTK kinase appurtenant to the kit was used for the reaction.
5 μL of the test compound B solution at a 4-fold concentration, prepared using the aforementioned assay buffer, and 10 μL of a BTK kinase solution at a 2-fold concentration were mixed within a well of a 384 well plate, and left to undergo a reaction at room temperature for 30 minutes. Continuously, 5 μL of a substrate peptide/ATP/MgCl2 solution at a 4-fold concentration was added thereto to perform the reaction at room temperature for 1 hour. The substrate peptide was used at a final concentration of 1000 nM, ATP at a final concentration of 1 mM, and MgCl2 at a final concentration of 5 mM. Thereafter, 60 μL of an appurtenant termination buffer was added thereto to stop the reaction. The BTK kinase activity was calculated by quantifying a product conversion ratio obtained from the substrate peptide peak height and the product (phosphorylated substrate peptide) peak height with LabChip EZ Reader II (PerkinElmer). […]

[1] = tested on: human histiocytic lymphoma cell line U-937 cells; test: Proliferation inhibition, U-937 cells (CellTiter-Glo); type: cell-based; settings: U-937, 72 h, 3 days culture
Description: U-937 is a cell line originated from human histiocytic lymphoma and the BTK expression has been confirmed (J. Immunol. 1994; 152(2):557-565). The human histiocytic lymphoma cell line U-937 cells (Sumitomo Dainippon Pharma Co., Ltd.) cultured in RPMI1640 medium (Sigma) containing 10% bovine serum were seeded into 96 well plates. On the same day, DMSO solutions of the test compound B at a final concentrations from 1 nM to 10 μM or only DMSO (DMSO group) were added thereto to culture the cells at 37° C. in 5% CO2 for 3 days. Thereafter, the cell number was measured using a cell counting reagent (CellTiter-Glo (registered trademark) Luminescent Cell Viability Assay (Promega)). The cell proliferation inhibition rate was calculated as the measured value in the DMSO group set as 0% inhibition and the measured value in the well only with the medium on which the cells have not been seeded set as 100% inhibition.

[2] = tested on: human lymphoblastic leukemia cell line MOLT-4 cells; test: Proliferation inhibition, MOLT-4 cells (CellTiter-Glo); type: cell-based; settings: MOLT-4, 96 h, 4 days culture
Description: MOLT-4 is a cell lines originated from human lymphoblastic leukemia and the ITK expression has been confirmed (Mol. Pharmacol. 2012; 82:938-947). The human lymphoblastic leukemia cell line MOLT-4 cells (European Collection of Cell Cultures, 85011413) cultured in RPMI1640 medium (Sigma) containing 10% bovine serum were inoculated into 96 well plates. On the same day, DMSO solutions of the test compound B at final concentrations from 1 nM to 10 μM or only DMSO (DMSO group) were added thereto to culture the cells at 37° C. in 5% CO2 for 4 days. Thereafter, the cell number was measured using a cell counting reagent (CellTiter-Glo (registered trademark) Luminescent Cell Viability Assay (Promega)). The cell proliferation inhibition rate was calculated as the measured value in the DMSO group set as 0% inhibition and the measured value in the well only with the medium on which the cells have not been seeded set as 100% inhibition.

Chain of BTK kinase (Q06187 whole entry): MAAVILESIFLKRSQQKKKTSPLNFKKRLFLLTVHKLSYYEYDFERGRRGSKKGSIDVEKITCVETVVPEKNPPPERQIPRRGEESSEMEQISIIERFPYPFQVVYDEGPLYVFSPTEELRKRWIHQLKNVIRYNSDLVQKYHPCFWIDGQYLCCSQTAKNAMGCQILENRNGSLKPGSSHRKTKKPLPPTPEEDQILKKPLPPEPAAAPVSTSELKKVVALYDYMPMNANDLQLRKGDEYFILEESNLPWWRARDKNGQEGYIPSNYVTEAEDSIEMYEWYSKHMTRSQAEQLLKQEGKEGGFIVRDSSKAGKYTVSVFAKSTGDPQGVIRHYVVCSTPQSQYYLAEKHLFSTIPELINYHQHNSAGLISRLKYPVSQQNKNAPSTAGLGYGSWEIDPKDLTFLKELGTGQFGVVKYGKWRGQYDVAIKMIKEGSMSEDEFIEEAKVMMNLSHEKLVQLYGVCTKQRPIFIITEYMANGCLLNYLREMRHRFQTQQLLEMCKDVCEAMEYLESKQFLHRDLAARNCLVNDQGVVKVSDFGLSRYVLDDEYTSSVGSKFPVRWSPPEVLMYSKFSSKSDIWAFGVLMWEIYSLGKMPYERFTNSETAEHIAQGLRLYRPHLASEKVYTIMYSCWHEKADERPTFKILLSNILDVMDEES

## C=CC(=O)N1CC[C@@H](Oc2nc(Nc3ccc(N4CCC(N5CCN(C)CC5)CC4)cc3)c(C(N)=O)nc2CC)C1 [test compound B, 5-{[(3R)-1-acryloylpyrrolidin-3-yl]oxy}-6-ethyl-3-({4-[4-(4-methylpiperazin-1-yl)piperidin-1-yl]phenyl}amino)pyrazine-2-carboxamide monomethanesulfonate]
BTK kinase
  IC50: 0.17 nM
[1]
  IC50: 63 nM
[2]
  IC50: 410 nM
